21 compounds from patent publication US11254668B2, “Pyrazolo[1,5-A]pyrazin-4-yl and related derivatives” (Pfizer Inc., priority 2017, dated 2022) can be followed below.

A word on the IC50: it is the concentration at which inhibition is half-maximal.

The structures appear in SMILES notation.

What all share (assay type): biochemical
Common to all, as to settings: JAK Caliper enzyme assay

One assay addresses TYK2 (Homo sapiens (Human), UniProt P29597). Put plainly: JAK Caliper Enzyme Assay at 1 mM ATP, TYK2. A digest of the protocol: (§1)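 Mobility-shift microfluidic read-out: substrate and phosphopeptide peaks separated, % conversion = product/(product+substrate). Reaction used recombinant human kinase domain, synthetic peptide, 1 mM ATP, RT incubation to 20–30% turnover, quenched with EDTA. Percent effect versus DMSO and positive controls, plotted against concentration.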

The target of another assay is JAK1 (Homo sapiens (Human), UniProt P23458). Briefly: JAK Caliper Enzyme Assay at 1 mM ATP, JAK1. In short, it runs like this: (§2)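 Recombinant human kinase domains phosphorylate a fluorescent synthetic peptide at 1 mM ATP, room temperature, with enzyme and time tuned for 20-30% conversion; EDTA-stopped. Product/substrate separated by microfluidic mobility shift; percent effect versus DMSO and positive controls fitted to IC50 (nM).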

Another assay concerns the target JAK2 (Homo sapiens (Human), UniProt O60674). Briefly: JAK Caliper Enzyme Assay at 1 mM ATP, JAK2. In short, it runs like this: as §1
The target in another assay is JAK3 (Homo sapiens (Human), UniProt P52333). Put plainly: JAK Caliper Enzyme Assay at 1 mM ATP, JAK3. In short, it runs like this: as §2
Chain of JAK3 (P52333 822-1111): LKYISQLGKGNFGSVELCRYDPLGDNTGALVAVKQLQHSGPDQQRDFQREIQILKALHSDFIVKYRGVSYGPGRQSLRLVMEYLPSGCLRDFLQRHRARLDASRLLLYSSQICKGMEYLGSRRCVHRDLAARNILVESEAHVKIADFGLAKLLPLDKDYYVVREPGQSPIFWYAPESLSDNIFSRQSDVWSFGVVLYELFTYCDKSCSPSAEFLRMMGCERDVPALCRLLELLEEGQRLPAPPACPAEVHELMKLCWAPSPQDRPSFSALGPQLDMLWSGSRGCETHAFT

Chain of JAK1 (P23458 875-1153): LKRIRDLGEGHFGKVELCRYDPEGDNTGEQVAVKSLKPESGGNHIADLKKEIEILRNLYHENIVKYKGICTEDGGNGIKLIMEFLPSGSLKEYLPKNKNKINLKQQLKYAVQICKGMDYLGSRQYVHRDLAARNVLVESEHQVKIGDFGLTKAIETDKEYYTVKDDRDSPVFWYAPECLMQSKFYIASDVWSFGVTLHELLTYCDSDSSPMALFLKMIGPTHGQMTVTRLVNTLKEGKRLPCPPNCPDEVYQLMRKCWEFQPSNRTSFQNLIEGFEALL
Chain of TYK2 (P29597 897-1176): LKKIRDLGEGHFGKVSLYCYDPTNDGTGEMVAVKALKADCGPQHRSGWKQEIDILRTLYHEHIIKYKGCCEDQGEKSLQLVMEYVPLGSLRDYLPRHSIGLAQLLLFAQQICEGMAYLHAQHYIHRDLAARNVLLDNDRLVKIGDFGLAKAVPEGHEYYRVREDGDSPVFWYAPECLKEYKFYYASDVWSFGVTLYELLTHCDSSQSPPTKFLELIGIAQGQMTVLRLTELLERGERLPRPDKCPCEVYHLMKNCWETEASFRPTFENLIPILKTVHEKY
Chain of JAK2 (O60674 849-1124): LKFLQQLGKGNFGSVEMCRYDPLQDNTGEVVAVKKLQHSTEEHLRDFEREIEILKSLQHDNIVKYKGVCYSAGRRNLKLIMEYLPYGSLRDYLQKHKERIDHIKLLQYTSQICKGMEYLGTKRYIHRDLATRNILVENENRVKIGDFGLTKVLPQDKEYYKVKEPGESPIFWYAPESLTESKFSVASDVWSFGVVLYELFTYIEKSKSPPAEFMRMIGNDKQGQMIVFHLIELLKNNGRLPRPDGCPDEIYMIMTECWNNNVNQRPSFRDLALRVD

As for `N#CC[C@]1(n2ncc(-c3cc(-c4cnc5ncccn45)cc4ncccc34)n2)C[C@@H](C#N)C1` [Example 417, cis-3-(cyanomethyl)-3-{4-[7-(imidazo[1,2-a]pyrimidin-3-yl)quinolin-5-yl]-2H-1,2,3-triazol-2-yl}cyclobutanecarbonitrile], the IC50 on TYK2 is 110 nM; on JAK1, 7470 nM; on JAK2, 291 nM; at JAK3 it was more than 10000 nM.

In the case of `N#CC[C@]1(n2ncc(-c3cc(-c4cnc5ncccn45)cc4ncccc34)n2)C[C@H](C#N)C1` [Example 418, trans-3-(cyanomethyl)-3-{4-[7-(imidazo[1,2-a]pyrimidin-3-yl)quinolin-5-yl]-2H-1,2,3-triazol-2-yl}cyclobutanecarbonitrile], the half-maximal inhibitory concentration (IC50) on TYK2 was 1540 nM; on JAK1, more than 10000 nM; on JAK2 it was 8070 nM; at JAK3 it was more than 10000 nM.

Take `N#CC[C@]1(n2ncc(-c3cc(-c4cnn5cccnc45)cc4ncccc34)n2)C[C@@H](C#N)C1` [Example 419, cis-3-(cyanomethyl)-3-{4-[7-(pyrazolo[1,5-a]pyrimidin-3-yl)quinolin-5-yl]-2H-1,2,3-triazol-2-yl}cyclobutanecarbonitrile]: the concentration for half-maximal inhibition (IC50) on TYK2 was 105 nM; at JAK1 it was 739 nM; at JAK2, 200 nM; at JAK3 it was more than 10000 nM.

Turning to `N#CC[C@]1(n2ncc(-c3cc(-c4cnn5cccnc45)cc4ncccc34)n2)C[C@H](C#N)C1` [Example 420, trans-3-(cyanomethyl)-3-{4-[7-(pyrazolo[1,5-a]pyrimidin-3-yl)quinolin-5-yl]-2H-1,2,3-triazol-2-yl}cyclobutanecarbonitrile], the IC50 was 909 nM at TYK2, more than 10000 nM on JAK1, 1700 nM at JAK2 and more than 10000 nM at JAK3.

`N#CCC1(n2ncc(-c3cc(-c4cnc5cccnn45)cc4ncccc34)n2)CC(C#N)C1` (stereo not drawn) [Example 421, cis-3-(cyanomethyl)-3-{4-[7-(imidazo[1,2-b]pyridazin-3-yl)quinolin-5-yl]-2H-1,2,3-triazol-2-yl}cyclobutanecarbonitrile]: the half-maximal inhibitory concentration (IC50) was 113 nM at TYK2, 1560 nM at JAK1, 353 nM on JAK2 and more than 10000 nM at JAK3.

As to `N#CC[C@]1(n2ncc(-c3cc(-c4cnc5c(N)nccn45)cc4ncccc34)n2)C[C@@H](C#N)C1` [Example 422, cis-3-{4-[7-(8-aminoimidazo[1,2-a]pyrazin-3-yl)quinolin-5-yl]-2H-1,2,3-triazol-2-yl}-3-(cyanomethyl)cyclobutanecarbonitrile], the IC50 is 292 nM at TYK2, 5380 nM on JAK1, 1460 nM on JAK2 and more than 10000 nM at JAK3.

On to `N#CC[C@]1(n2ncc(-c3cc(-c4cn5ccnc5c(N)n4)cc4ncccc34)n2)C[C@@H](C#N)C1` [Example 423, cis-3-{4-[7-(8-aminoimidazo[1,2-a]pyrazin-6-yl)quinolin-5-yl]-2H-1,2,3-triazol-2-yl}-3-(cyanomethyl)cyclobutanecarbonitrile], for which the IC50 on TYK2 is 76 nM; on JAK1 it was 2250 nM; on JAK2, 183 nM; at JAK3, more than 10000 nM.

In the case of `Cc1nc2ccc(-c3cc(-c4cnn([C@]5(CC#N)C[C@H](C#N)C5)n4)c4cccnc4c3)nc2[nH]1` [Example 424, cis-3-(cyanomethyl)-3-{4-[7-(2-methyl-3H-imidazo[4,5-b]pyridin-5-yl)quinolin-5-yl]-2H-1,2,3-triazol-2-yl}cyclobutanecarbonitrile], the IC50 at TYK2 was 23 nM; at JAK1 it was 728 nM; on JAK2, 82 nM; at JAK3 it was 9360 nM.

Consider `CN1C(=O)COc2ccc(-c3cc(-c4cnn([C@]5(CC#N)C[C@H](C#N)C5)n4)c4cccnc4c3)nc21` [Example 425, cis-3-(cyanomethyl)-3-{4-[7-(4-methyl-3-oxo-3,4-dihydro-2H-pyrido[3,2-b][1,4]oxazin-6-yl)quinolin-5-yl]-2H-1,2,3-triazol-2-yl}cyclobutanecarbonitrile], for which the IC50 on TYK2 was 12 nM; on JAK1, 608 nM; on JAK2 it was 29 nM; on JAK3, more than 10000 nM.

As to `CN1C(=O)COc2ccc(-c3cc(-c4cnn([C@]5(CC#N)C[C@@H](C#N)C5)n4)c4cccnc4c3)nc21` [Example 426, trans-3-(cyanomethyl)-3-{4-[7-(4-methyl-3-oxo-3,4-dihydro-2H-pyrido[3,2-b][1,4]oxazin-6-yl)quinolin-5-yl]-2H-1,2,3-triazol-2-yl}cyclobutanecarbonitrile], the half-maximal inhibitory concentration (IC50) on TYK2 was 24 nM; at JAK1, 1000 nM; on JAK2 it was 50 nM; at JAK3 it was more than 10000 nM.

Regarding `CS(=O)(=O)N1CC(CC#N)(n2ncc(-c3cc(-c4cccc(CN)c4)cc4ncccc34)n2)C1` [Example 427, [3-(4-{7-[3-(aminomethyl)phenyl]quinolin-5-yl}-2H-1,2,3-triazol-2-yl)-1-(methylsulfonyl)azetidin-3-yl]acetonitrile], the IC50 at TYK2 was 709 nM; at JAK1 it was more than 10000 nM; on JAK2, 3150 nM; on JAK3, more than 10000 nM.

`CS(=O)(=O)N1CC(CC#N)(n2ncc(-c3cc(-c4ccc(CN)cc4)cc4ncccc34)n2)C1` [Example 428, [3-(4-{7-[4-(aminomethyl)phenyl]quinolin-5-yl}-2H-1,2,3-triazol-2-yl)-1-(methylsulfonyl)azetidin-3-yl]acetonitrile]: the IC50 at TYK2 is 128 nM; on JAK1 it was 9320 nM; at JAK2 it was 924 nM; at JAK3, more than 10000 nM.

Regarding `CS(=O)(=O)N1CC(CC#N)(n2ncc(-c3cc(-c4cccc(CO)c4)cc4ncccc34)n2)C1` [Example 429, [3-(4-{7-[3-(hydroxymethyl)phenyl]quinolin-5-yl}-2H-1,2,3-triazol-2-yl)-1-(methylsulfonyl)azetidin-3-yl]acetonitrile], the IC50 on TYK2 is 112 nM; at JAK1, 4000 nM; on JAK2, 1120 nM; at JAK3 it was more than 10000 nM.

On to `CS(=O)(=O)N1CC(CC#N)(n2ncc(-c3cc(-c4cccc(C(N)=O)c4)cc4ncccc34)n2)C1` [Example 430, 3-(5-{2-[3-(cyanomethyl)-1-(methylsulfonyl)azetidin-3-yl]-2H-1,2,3-triazol-4-yl}quinolin-7-yl)benzamide], for which the concentration for half-maximal inhibition (IC50) on TYK2 is 93 nM; on JAK1 it was 3140 nM; on JAK2, 909 nM; at JAK3, more than 10000 nM.

Turning to `N#CC[C@]1(n2ncc(-c3cc(-c4ccc(C(N)=O)cc4)cc4ncccc34)n2)C[C@H](C#N)C1` [Example 433, 4-(5-{2-[cis-3-cyano-1-(cyanomethyl)cyclobutyl]-2H-1,2,3-triazol-4-yl}quinolin-7-yl)benzamide], the half-inhibitory concentration (IC50) at TYK2 is 20 nM; at JAK1 it was 352 nM; on JAK2 it was 116 nM; on JAK3, 6700 nM.

Turning to `N#CCC1(n2ncc(-c3cc(-c4ccc(C(N)=O)cc4)cc4ncccc34)n2)CC(C#N)C1` (stereo not drawn) [Example 434, 4-(5-{2-[trans-3-cyano-1-(cyanomethyl)cyclobutyl]-2H-1,2,3-triazol-4-yl}quinolin-7-yl)benzamide], the IC50 is 99 nM on TYK2, 2520 nM at JAK1, 748 nM on JAK2 and more than 10000 nM on JAK3.

As for `N#CC[C@]1(n2ncc(-c3cc(-c4ccc(C(=O)O)cc4)cc4ncccc34)n2)C[C@H](C#N)C1` [Example 435, 4-(5-{2-[cis-3-cyano-1-(cyanomethyl)cyclobutyl]-2H-1,2,3-triazol-4-yl}quinolin-7-yl)benzoic acid], the IC50 at TYK2 was 17 nM; at JAK1, 208 nM; at JAK2 it was 179 nM; at JAK3, more than 10000 nM.

`N#CCC1(n2ncc(-c3cc(-c4ccc(C(=O)O)cc4)cc4ncccc34)n2)CC(C#N)C1` (stereo not drawn) [Example 436, 4-(5-{2-[trans-3-cyano-1-(cyanomethyl)cyclobutyl]-2H-1,2,3-triazol-4-yl}quinolin-7-yl)benzoic acid]: the IC50 was 75 nM on TYK2, 1490 nM on JAK1, 1130 nM at JAK2 and more than 10000 nM on JAK3.

As for `CS(=O)(=O)N1CC(CC#N)(n2ncc(-c3cc(-c4ccccc4O)cc4ncccc34)n2)C1` [Example 437, [3-{4-[7-(2-hydroxyphenyl)quinolin-5-yl]-2H-1,2,3-triazol-2-yl}-1-(methylsulfonyl)azetidin-3-yl]acetonitrile], the IC50 on TYK2 is 1210 nM; on JAK1, more than 10000 nM; on JAK2, more than 10000 nM; at JAK3, more than 10000 nM.

Regarding `CS(=O)(=O)N1CC(CC#N)(n2ncc(-c3cc(-c4cccc(O)c4)cc4ncccc34)n2)C1` [Example 438, [3-{4-[7-(3-hydroxyphenyl)quinolin-5-yl]-2H-1,2,3-triazol-2-yl}-1-(methylsulfonyl)azetidin-3-yl]acetonitrile], the IC50 at TYK2 is 107 nM; on JAK1 it was 5630 nM; on JAK2, 1960 nM; at JAK3 it was more than 10000 nM.

For the compound `CS(=O)(=O)N1CC(CC#N)(n2ncc(-c3cc(-c4ccc(O)cc4)cc4ncccc34)n2)C1` [Example 439, [3-{4-[7-(4-hydroxyphenyl)quinolin-5-yl]-2H-1,2,3-triazol-2-yl}-1-(methylsulfonyl)azetidin-3-yl]acetonitrile], the 50% inhibitory concentration (IC50) at TYK2 was 30 nM; on JAK1, 1210 nM; on JAK2, 609 nM; at JAK3, more than 10000 nM.
